Reference: ChEMBL document CHEMBL1201862, “PubChem BioAssay data set” (2004)
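Tested at 5 concentrations; 48 h exposure; 96-well plates; endpoints linearly interpolated, else capped at highest concentration. GI50 = concentration required for 50% inhibition of growth.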 Active and inactive are the calls of the source. Cut-off read from the data, not from the text of the source: active = GI50 up to about 1.1 µM and inactive = higher.

How the values were obtained:
Test in all cases: NCI-60 cell line screen, 48 h
[1] = tested on: SK-MEL-28
[2] = tested on: RPMI-8226
[3] = tested on: SF-268
[4] = tested on: A498
[5] = tested on: SW-620
[6] = tested on: HT-29
[7] = tested on: MDA-N
[8] = tested on: RXF 393
[9] = tested on: UO-31
[10] = tested on: DU-145
[11] = tested on: T47D
[12] = tested on: MDA-MB-231
[13] = tested on: SN12C
[14] = tested on: OVCAR-4
[15] = tested on: Malme-3M
[16] = tested on: OVCAR-8
[17] = tested on: IGROV-1
[18] = tested on: 786-0
[19] = tested on: HOP-62
[20] = tested on: SK-MEL-5
[21] = tested on: Hs-578T
[22] = tested on: LOX IMVI
[23] = tested on: NCI-H460
[24] = tested on: UACC-62
[25] = tested on: NCI-H522
[26] = tested on: COLO 205
[27] = tested on: OVCAR-3
[28] = tested on: MDA-MB-435
[29] = tested on: HCT-116
[30] = tested on: HL-60
[31] = tested on: ACHN
[32] = tested on: SF-295
[33] = tested on: HCT-15
[34] = tested on: OVCAR-5
[35] = tested on: SR
[36] = tested on: UACC-257
[37] = tested on: NCI-H226
[38] = tested on: MOLT-4
[39] = tested on: A549
[40] = tested on: HOP-92
[41] = tested on: KM12
[42] = tested on: CCRF-CEM
[43] = tested on: SF-539
[44] = tested on: PC-3
[45] = tested on: NCI-H23
[46] = tested on: SNB-75
[47] = tested on: TK-10
[48] = tested on: K562
[49] = tested on: SK-OV-3
[50] = tested on: SK-MEL-2
[51] = tested on: SNB-19
[52] = tested on: HCC 2998
[53] = tested on: MCF7
[54] = tested on: U-251
[55] = tested on: EKVX
[56] = tested on: NCI/ADR-RES
[57] = tested on: CAKI-1
[58] = tested on: M14
[59] = tested on: BT-549

Measured: GI50

C/N=C/N(C)c1c2ccccc2nc2ccccc12
> 100 µM: [33]
inactive: [1] > 100 µM | [2] > 100 µM | [3] > 100 µM | [4] > 100 µM | [5] > 100 µM | [6] > 100 µM | [7] > 100 µM | [8] > 100 µM | [9] 11.6 µM | [10] > 100 µM | [11] 85.7 µM | [12] > 100 µM | [13] > 100 µM | [14] > 100 µM | [15] > 100 µM | [16] > 100 µM | [17] > 100 µM | [18] > 100 µM | [19] > 100 µM | [20] > 100 µM | [21] > 100 µM | [22] > 100 µM | [23] > 100 µM | [24] > 100 µM | [25] > 100 µM | [26] > 100 µM | [27] > 100 µM | [28] > 100 µM | [29] > 100 µM | [30] > 100 µM | [31] > 100 µM | [32] > 100 µM | [34] > 100 µM | [35] > 100 µM | [36] > 100 µM | [37] > 100 µM | [38] > 100 µM | [39] > 100 µM | [40] 64.7 µM | [41] > 100 µM | [42] > 100 µM | [43] > 100 µM | [44] > 100 µM | [45] > 100 µM | [46] 90.6 µM | [47] > 100 µM | [48] > 100 µM | [49] > 100 µM | [50] > 100 µM | [51] > 100 µM | [52] > 100 µM | [53] > 100 µM | [54] > 100 µM | [55] > 100 µM | [56] > 100 µM | [57] > 100 µM | [58] > 100 µM

O=C(c1ccc(Cl)cc1)C(O)c1ccc(Cl)cc1 (stereo unspecified)
inactive: [1] > 100 µM | [2] 60.4 µM | [3] > 100 µM | [5] > 100 µM | [6] > 100 µM | [8] > 100 µM | [59] 53.8 µM | [9] > 100 µM | [10] 92 µM | [12] > 100 µM | [13] > 100 µM | [14] 86.3 µM | [15] 40.3 µM | [16] 63.2 µM | [17] 85.3 µM | [18] > 100 µM | [19] > 100 µM | [20] 30.9 µM | [21] 45.3 µM | [22] > 100 µM | [23] > 100 µM | [24] 42 µM | [25] 42 µM | [26] > 100 µM | [27] 43.8 µM | [28] > 100 µM | [29] > 100 µM | [30] 32.5 µM | [31] > 100 µM | [32] > 100 µM | [34] > 100 µM | [35] 25.4 µM | [36] 52.8 µM | [37] > 100 µM | [38] 24.8 µM | [39] 59.7 µM | [40] 30.8 µM | [41] 41.6 µM | [42] > 100 µM | [43] 65.5 µM | [44] 46.6 µM | [45] 70.3 µM | [46] > 100 µM | [47] 63.4 µM | [48] 30.8 µM | [50] > 100 µM | [51] > 100 µM | [52] > 100 µM | [53] 75.7 µM | [54] > 100 µM | [55] 34.2 µM | [56] > 100 µM | [57] > 100 µM | [58] > 100 µM
> 100 µM: [33]

CC(=O)O[C@H]1CC[C@@]2(C)C(=C[C@H](c3ccc(O)cc3)[C@H]3[C@@H]4CC[C@H](OC(C)=O)[C@@]4(C)CC[C@@H]32)C1
inactive: [2] 14 µM | [3] 19 µM | [5] 22 µM | [6] 13.6 µM | [8] 22.5 µM | [59] 14.2 µM | [9] 25.2 µM | [10] 20.7 µM | [12] 17.9 µM | [13] 23 µM | [14] 15.4 µM | [15] 17.9 µM | [16] 16.9 µM | [18] 19.6 µM | [19] 19.1 µM | [20] 11.4 µM | [22] 14.1 µM | [23] 20.5 µM | [24] 10.4 µM | [26] 19.2 µM | [27] 17.3 µM | [28] 25.2 µM | [29] 15.8 µM | [30] 19.6 µM | [31] 22.6 µM | [32] 29 µM | [34] 23.7 µM | [36] 22 µM | [37] 17.4 µM | [38] 18.4 µM | [39] 16.3 µM | [40] 34.4 µM | [41] 16.6 µM | [42] 21.3 µM | [43] 21 µM | [44] 14.3 µM | [45] 19.8 µM | [46] 24.7 µM | [47] 32.3 µM | [48] 12.9 µM | [49] > 100 µM | [50] 20.2 µM | [51] 19.9 µM | [52] 20.5 µM | [53] 23 µM | [54] 22.1 µM | [55] 20.8 µM | [56] 13.5 µM | [57] 18.6 µM | [58] 19 µM
active: [4] 0.51 µM
12.3 µM: [33]

CCCCCCCCCCCCCCCCCc1cccc(OCOCCOC)c1CO
> 100 µM: [33]
inactive: [1] > 100 µM | [2] > 100 µM | [3] > 100 µM | [4] > 100 µM | [5] > 100 µM | [6] > 100 µM | [8] > 100 µM | [59] > 100 µM | [9] > 100 µM | [12] > 100 µM | [14] > 100 µM | [15] > 100 µM | [16] > 100 µM | [17] > 100 µM | [18] > 100 µM | [19] > 100 µM | [20] > 100 µM | [21] > 100 µM | [23] > 100 µM | [24] > 100 µM | [25] > 100 µM | [26] > 100 µM | [27] > 100 µM | [28] > 100 µM | [29] > 100 µM | [30] > 100 µM | [31] > 100 µM | [32] > 100 µM | [34] > 100 µM | [35] > 100 µM | [36] > 100 µM | [37] > 100 µM | [38] > 100 µM | [39] > 100 µM | [40] > 100 µM | [41] > 100 µM | [42] > 100 µM | [43] > 100 µM | [44] > 100 µM | [45] > 100 µM | [46] > 100 µM | [47] > 100 µM | [48] > 100 µM | [49] > 100 µM | [50] > 100 µM | [51] > 100 µM | [52] > 100 µM | [53] > 100 µM | [54] > 100 µM | [55] > 100 µM | [56] > 100 µM | [57] > 100 µM | [58] > 100 µM

CC(C)C(NC(=O)C(Cc1ccccc1)NC(=O)[C@H]1CCC[C@H]1NC(=O)C(Cc1ccc(OC(C)(C)C)cc1)NC(=O)OC(C)(C)C)C(N)=O (stereo partly specified)
36.1 µM: [33]
inactive: [1] 18.4 µM | [2] 36.5 µM | [3] 23.1 µM | [4] 10.7 µM | [5] 20.9 µM | [6] 21.5 µM | [7] 18.3 µM | [8] 81.1 µM | [9] 47.4 µM | [10] 54.2 µM | [11] 20 µM | [12] 20.7 µM | [13] 18.2 µM | [14] 19.4 µM | [15] > 10 µM | [16] 16.6 µM | [17] 31.3 µM | [18] 60.1 µM | [19] 16.6 µM | [20] 9.95 µM | [21] > 10 µM | [22] 15.6 µM | [23] 19.2 µM | [24] 13.8 µM | [25] 14.9 µM | [26] 19.6 µM | [27] 25.1 µM | [28] 17 µM | [29] 17.3 µM | [30] 34.8 µM | [31] 45.7 µM | [32] 17.3 µM | [34] 18.8 µM | [35] 34.9 µM | [36] > 10 µM | [37] 22.4 µM | [38] 17.4 µM | [39] 20.1 µM | [40] 21.8 µM | [41] 21.9 µM | [42] 16.6 µM | [43] 16.5 µM | [44] 17.8 µM | [45] 16.9 µM | [46] 11.4 µM | [47] 28.5 µM | [48] 17.8 µM | [49] 17.9 µM | [50] 26 µM | [52] 16.5 µM | [53] 19.8 µM | [54] 14.2 µM | [55] > 100 µM | [56] > 100 µM | [57] 95.9 µM | [58] 18 µM
